Patent US9987242B2, “Treatment of Levodopa-induced Dyskinesias” (NORTHWESTERN UNIVERSITY, priority 2015, dated 2018)

Tested on: NMDAR-mediated Ca2+ transients in dSPN spines
Assay: NMDAR-mediated Ca2+ transients in dSPN spines, two-photon glutamate uncaging and Fluo-5F imaging
Assay type: cell-based, mice
From the text: dSPNs were identified by somatic tdTomato expression using two-photon excited fluorescence that was induced and detected using a Prairie Ultima laser scanning microscope system (Prairie Technologies). Fluorescent and bright-field images were viewed in register using a Dodt contrast detector system. Cells were patched using video microscopy with a Hitachi CCD camera and an Olympus 60×/1.0 NA lens. Green (Fluo 5F) and red (tdTomato; Alexa 568) signals were acquired using 810 nm excitation (Verdi/Mira laser). Following patch rupture the internal solution was allowed to equilibrate for 10-15 minutes before imaging. High magnification z-series of dendrite regions 50-100 μm from the soma were acquired with 0.072 μm2 pixels with 4 μs dwell time and 0.3 μm z-steps. […]
dSPNs were loaded with 25 μM Alexa 568 and 300 μM Fluo 5F via the internal recording solution, containing (in mM): 120 CsMeSO3, 5 NaCl, 10 TEA-Cl, 10 HEPES, 5 QX-314, 4 ATP-Mg and 0.3 GTP-Na. […] Changes in Fluo 5F fluorescence were averaged from 3 trials and measured as ΔF/Fo.
Glutamate uncaging was achieved using a Verdi/Mira (Coherent Laser Group, Santa Clara, Calif.) (Plotkin et al., 2014). […] Photolysis power was tuned via a third Pockels cell modulator (Con Optics, Danbury, Conn.) to achieve uEPSCs≤5 pA. uEPSC amplitudes were measured from averaged (3-5 repetitions) traces. […]

## Cc1cc(C)c2c(N)c(C(=O)NCc3ccc(Cl)cc3)sc2n1 [VU10010]
SKF81297 3 μM, then muscarine and the M4R PAM co-applied, n=12
  decrease of NMDAR-mediated Ca2+ transients: ~40%
VU10010 5 μM, dSPNs from LID mice
  NMDAR-mediated Ca2+ transients: reduced NMDAR-mediated Ca2+ transients
